Measured values taken from ChEMBL document CHEMBL1158442, “Design, synthesis and structure-activity relationships of (1H-pyridin-4-ylidene)amines as potential antimalarials” (Bioorg Med Chem Lett, 2009).

Experiments:
Plasmodium falciparum [1] = test: Antimalarial activity after 48 hrs against atovaquone-resistant Plasmodium falciparum FCR3 by [3H]hypoxanthine uptake; type: functional, organism-based
Plasmodium falciparum [2] = test: Antimalarial activity after 48 hrs against chloroquine-resistant Plasmodium falciparum W2 by [3H]hypoxanthine uptake; type: functional, organism-based

SMILES	IC50 (Plasmodium falciparum [1]) [µM]	IC50 (Plasmodium falciparum [2]) [µM]
CCn1cc/c(=N\c2cccc(CCc3ccc(C(F)(F)F)cc3)c2)c(Cl)c1	1.87	1.6
CC[N+](C)(CC)Cc1cc(/N=c2\ccn(C)cc2S(=O)(=O)N(C)C)ccc1OC	> 10	> 50
CCn1cc/c(=N\c2ccc(CCc3ccccc3)cc2)c(Cl)c1	3.74	> 10
CCn1cc/c(=N\c2cccc(CCc3ccccc3)c2)c(N)c1	2.08	1.67
CCN(CC)Cc1cc(/N=c2\ccn(C)c(C)c2)ccc1O	8.09	20.7
CCN(CC)Cc1cc(/N=c2\ccn(C)cc2C)ccc1O	> 10	33
Cn1cc/c(=N\c2cccc(CCc3ccccc3)c2)c(Cl)c1	2.89	4.75
COc1ccc(CCc2cccc(/N=c3\ccn(C)cc3Cl)c2)cc1	5.12	5.24
CCn1cc(Cl)c(=Nc2cccc(CCc3ccc(OC(F)(F)F)cc3)c2)c(Cl)c1	2.8	0.94
CCN(CC)Cc1cc(N=c2ccn(C)cc2)ccc1O	7.9	8.61
CCn1cc/c(=N\c2cccc(CCc3ccc(OC(F)(F)F)cc3)c2)c(Cl)c1	1.7	1.07
CCn1cc/c(=N\c2cccc(CCCc3ccccc3)c2)c(Cl)c1	2.25	2.43
On1cc/c(=N\c2cccc(CCc3ccccc3)c2)c(Cl)c1	> 8900	> 8900
CCn1cc/c(=N\c2cccc(CCc3ccccc3)c2)c(Cl)c1	3.53	3.46
CCn1cc/c(=N\c2cccc(CCc3ccc(Cl)cc3)c2)c(Cl)c1	2.17	3.24
CCn1cc/c(=N\c2cccc(CCc3ccc(OC)cc3)c2)c(Cl)c1	3.95	3.44
CCn1cc/c(=N\c2ccccc2CCc2ccccc2)c(Cl)c1	3.19	6.77
Cn1cc/c(=N\c2cccc(CCc3ccccc3)c2)c(N)c1	2.21	1.47
CC[N+](C)(CC)Cc1cc(/N=c2\ccn(C)c(C)c2)ccc1O	9.86	> 50
CCn1cc/c(=N\c2cccc(CCc3ccc(OC(F)(F)F)cc3)c2)c(N)c1	1.83	3.91
O=C1C(O)=C([C@H]2CC[C@H](c3ccc(Cl)cc3)CC2)C(=O)c2ccccc21 [ATOVAQUONE]	1.89	–
Cc1nc(C)c(Cl)c(O)c1Cl [CLOPIDOL]	3.37	9.73
